# Results published in patent publication US20050208139A1 (Ascend Therapeutics, Inc., priority 2004, published 2005).
# Key:
# [1] = Isomerization of 4-hydroxy tamoxifen in hydroalcoholic solutions at 25°, 30° and 40° C., Z/E isomers by HPLC (Example 1); type: physicochemical
# Experimental: Hydroalcoholic solutions containing 4-hydroxy tamoxifen were prepared, based on the following gel formula: […]
# In the hydroalcoholic solutions, phosphate buffer was substituted for Klucel. The composition of the buffer was as follows:
# At each of the stated concentrations, separate solutions containing Z-4-hydroxy tamoxifen or a mixture of Z- and E-4-hydroxy tamoxifen were prepared.
# Each solution was subdivided into three parts in 30 ml brown glass bottles, then placed in ovens regulated at 25°, 30°, and 40° C.
# The relative amounts of Z- and E-4-hydroxy tamoxifen isomers were determined at the initiation of the study and at 2-week, 1-month, 2-month, 3-month, 4-month and 5-month time points.
# Operating parameters for the HPLC were as follows:
# The order of elution was as follows: • 4-OHT E: retention time about 13.3 min • 4-OHT Z: retention time about 15.0 min.
# Percentages of each isomer were calculated using the following formulas: [formula] [formula] D. Data fitting:
# The reversible isomerization reaction and the equilibrium reaches are lied by the following relationship: [formula] where • A0=initial concentration of the reagent • Aeq=concentration of the same reagent at equilibrium • A=the concentration of A at time t • kf=forward rate constant • kr=reverse rate constant • t=time measured in months
# A plot of log [formula] as a function of time gives a straight line fit with a slope of [formula] and a y-intercept of 0. E. Results
# [2] = Effects of isopropyl myristate, nature of the alcohol and alcohol/phosphate buffer ratio on isomerization (Example 2); type: physicochemical
# Description: The initial E/Z ratio was 63%/37%. • Reference solution: Gel formulation without the gelling agent KLUCEL • Solution II: Reference solution without Isopropyl myristate and containing ethanol • Solution III: Solution II with the ethanol replaced by Isopropyl alcohol • Solution IV: Solution II with the ethanol/buffer ratio of 50/50 instead of 66.5/33.5
# [3] = Effects of UV light on isomerization (Example 4); type: physicochemical; conditions: room temperature
# [4] = test system: human breast tumors grown subcutaneously in mice; conditions: transdermally delivered; cited from earlier work
# [5] = cited from earlier work
# estrogen receptors = conditions: in vitro; cited from earlier work
# [6] = 254 nm, T0, degradation impurity (phenanthrene derivative)
structure (smiles),measurement,setting,value
"CCC(=C(c1ccc(O)cc1)c1ccc(OCCN(C)C)cc1)c1ccccc1 [4-hydroxy tamoxifen, 1-[4-(2-N-dimethylaminoethoxy)phenyl]-1-(4-hydroxyphenyl)-2-phenylbut-1-ene]",magnitude of the rate constants for the reversible isomerism as nominal concentration varied from 0.02% to 0.10%,[1],increased linearly
same,effect of replacing ethanol by isopropyl alcohol and eliminating the isopropyl myristate on the reversible kinetics,[2]; 0.06% solutions,no significant effect
same,effect of increasing the aqueous vehicle (buffer) concentration from 33.5% to 50% on the rate constant,[2]; 25° C. and 30° C.,greatly increases the rate constant
same,effect of increasing the aqueous vehicle (buffer) concentration from 33.5% to 50% on the rate constant,[2]; 40° C.,less pronounced
same,dependence of the isomerization rate on the dielectric constant of the solvent medium,[2]; water concentration in the medium increases,increased as the dielectric constant of the solvent medium is increased
same,% E,"[3]; 254 nm, 5 min",3.0%
same,% Z,"[3]; 254 nm, 5 min",91.5%
same,% imp 1,"[3]; 254 nm, 5 min",0.0%
same,% imp 2,"[3]; 254 nm, 5 min",5.5%
same,% E,"[3]; 254 nm, 10 min",3.1%
same,% Z,"[3]; 254 nm, 10 min",90.5%
same,% imp 1,"[3]; 254 nm, 10 min",0.0%
same,% imp 2,"[3]; 254 nm, 10 min",6.3%
same,% E,"[3]; 254 nm, 15 min",3.5%
same,% Z,"[3]; 254 nm, 15 min",86.5%
same,% imp 1,"[3]; 254 nm, 15 min",1.3%
same,% imp 2,"[3]; 254 nm, 15 min",8.7%
same,% E,"[3]; 254 nm, 30 min",5.7%
same,% Z,"[3]; 254 nm, 30 min",74.4%
same,% imp 1,"[3]; 254 nm, 30 min",4.3%
same,% imp 2,"[3]; 254 nm, 30 min",15.6%
same,% E,"[3]; 254 nm, 45 min",6.7%
same,% Z,"[3]; 254 nm, 45 min",65.1%
same,% imp 1,"[3]; 254 nm, 45 min",7.8%
same,% imp 2,"[3]; 254 nm, 45 min",20.4%
same,% E,"[3]; 254 nm, 1 h",7.2%
same,% Z,"[3]; 254 nm, 1 h",56.6%
same,% imp 1,"[3]; 254 nm, 1 h",10.2%
same,% imp 2,"[3]; 254 nm, 1 h",26.0%
same,% E,"[3]; 254 nm, 1 h 15",7.5%
same,% Z,"[3]; 254 nm, 1 h 15",52.7%
same,% imp 1,"[3]; 254 nm, 1 h 15",11.4%
same,% imp 2,"[3]; 254 nm, 1 h 15",28.4%
same,% E,"[3]; 254 nm, 1 h 30",8.2%
same,% Z,"[3]; 254 nm, 1 h 30",43.5%
same,% imp 1,"[3]; 254 nm, 1 h 30",14.0%
same,% imp 2,"[3]; 254 nm, 1 h 30",34.2%
same,% E,"[3]; 254 nm, 1 h 45",8.2%
same,% Z,"[3]; 254 nm, 1 h 45",38.2%
same,% imp 1,"[3]; 254 nm, 1 h 45",16.5%
same,% imp 2,"[3]; 254 nm, 1 h 45",37.1%
same,% E,"[3]; 254 nm, 2 h",8.3%
same,% Z,"[3]; 254 nm, 2 h",32.5%
same,% imp 1,"[3]; 254 nm, 2 h",18.2%
same,% imp 2,"[3]; 254 nm, 2 h",41.0%
same,% E,"[3]; 254 nm, T0",1.7%
same,% Z,"[3]; 254 nm, T0",98.3%
same,% imp 1,[3]; [6],0.0%
same,% imp 2,[3]; [6],0.0%
same,% E,"[3]; 380 nm, 5 min",1.6%
same,% Z,"[3]; 380 nm, 5 min",98.4%
same,% E,"[3]; 380 nm, 10 min",1.7%
same,% Z,"[3]; 380 nm, 10 min",98.3%
same,% E,"[3]; 380 nm, 15 min",1.6%
same,% Z,"[3]; 380 nm, 15 min",98.4%
same,% E,"[3]; 380 nm, 30 min",1.8%
same,% Z,"[3]; 380 nm, 30 min",98.2%
same,% E,"[3]; 380 nm, 45 min",1.9%
same,% Z,"[3]; 380 nm, 45 min",98.1%
same,% E,"[3]; 380 nm, 1 h",2.0%
same,% Z,"[3]; 380 nm, 1 h",98.0%
same,% E,"[3]; 380 nm, 1 h 15",2.8%
same,% Z,"[3]; 380 nm, 1 h 15",97.2%
same,% E,"[3]; 380 nm, 1 h 30",2.9%
same,% Z,"[3]; 380 nm, 1 h 30",97.1%
same,% E,"[3]; 380 nm, 1 h 45",2.9%
same,% Z,"[3]; 380 nm, 1 h 45",97.1%
same,% E,"[3]; 380 nm, 2 h",3.3%
same,% Z,"[3]; 380 nm, 2 h",96.7%
same,% E,"[3]; 380 nm, T0",1.6%
same,% Z,"[3]; 380 nm, T0",98.4%
same,isomerization process at 254 nm compared with 380 nm,[3]; UV light,faster than at 380 nm
same,time in which the isomerization process can be observed under UV light,[3],5 min
same,anti-tumor effect,[4],exhibits an anti-tumor effect
same,extent of isomerization,"[5]; Katzenellenbogen et al., isomers initially 99% pure, after 2 days in tissue culture medium at 37° C.",20%
same,time within which spontaneous isomerization of Z- into E-4-hydroxy tamoxifen occurred,[5]; Malet et al.,24-48 h
same,"potency as measured by binding affinity to estrogen receptors, compared with tamoxifen",estrogen receptors,more potency than tamoxifen
